These results are taken from US20250255966A1, “CORN PHYTOGLYCOGEN FORMULATIONS FOR STABILIZING PROTEINS” (UNIVERSITY OF FLORIDA RESEARCH FOUNDATION, INCORPORATED, priority 2022, published 2025).

In the assay the test system is GFP. Briefly: GFP preservation, comparison with common excipients. The format is biochemical. To be noted: after 10 cycles of lyophilization, excipient 20 mg/mL, 4 μM GFP. The method, then: As a model protein, 4 μM GFP was used. Each excipient was prepared at a concentration of 20 mg/mL as described above. Each excipient was mixed with GFP at a 1:1 (v/v) ratio. PBS without excipient was used as a control group. Samples were lyophilized, activity was measured, and relative activity was calculated using the same methods as above.

As for `OC[C@H]1O[C@H](O[C@H]2O[C@H](CO)[C@@H](O)[C@H](O)[C@H]2O)[C@H](O)[C@@H](O)[C@@H]1O` [trehalose], the “GFP stabilizing activity vs BSA” value is given as “comparable”.
Turning to polyethylene glycol [PEG], the “effectiveness as GFP/protein stabilizer” value is recorded as “not an effective GFP stabilizer”.
As for `OC[C@H]1O[C@@](CO)(O[C@H]2O[C@H](CO)[C@@H](O)[C@H](O)[C@H]2O)[C@@H](O)[C@@H]1O` [sucrose], the “GFP stabilizing activity vs BSA” value is given as “comparable”.
